Data on 17 compounds can be found in patent US11389455B2, “Inhibitors of HIV-1 integrase multimerization” (Institute for Cancer Research, priority 2017, dated 2022).

Series [1] deals with T1, HIV IN (Wild-type monomer) (Human immunodeficiency virus type 1 group M subtype B, UniProt P04585).
T1 construct: 1 uM HIV IN (Wild-type monomer)
It counts as biochemical, HIV-1. As to conditions: for I.I.(K Counts) CI/SI: ratio concerted/single end integration counts.

In series [2] the test system is HeLa cells.
In series [3] the target is T2, Avian Sarcoma Virus integrase (UniProt P03354).
T2 sequence (P03354 1281-1567): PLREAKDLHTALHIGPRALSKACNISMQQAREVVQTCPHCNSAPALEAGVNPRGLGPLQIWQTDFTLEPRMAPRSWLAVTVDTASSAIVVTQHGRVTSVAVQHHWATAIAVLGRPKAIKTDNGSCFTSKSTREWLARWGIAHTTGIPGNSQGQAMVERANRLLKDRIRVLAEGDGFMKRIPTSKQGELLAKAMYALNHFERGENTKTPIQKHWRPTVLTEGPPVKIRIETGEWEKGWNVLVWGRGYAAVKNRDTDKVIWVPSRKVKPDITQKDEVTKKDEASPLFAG
The series can be described thus: Specificity: single end and concerted integration in vitro, ASV integrase. As to conditions: Table 6. It counts as biochemical.

Series [4] deals with HeLa cells. Briefly: Cell toxicity during the infection experiment (Tox/Infect), 24 hours exposure. Particulars: only 24 hours of exposure.
Series [5] deals with Prototype Foamy Virus (PFV) integrase (Human spumaretrovirus, UniProt P14350). The series can be described thus: Specificity: single end and concerted integration in vitro, PFV integrase. It counts as biochemical. As to conditions: Table 6.
Series [6] relates to Envelope pseudotyped virus particles infecting HeLa cells. Briefly: Inhibition of infectivity, single round GFP reporter virus, percent GFP positive cells. As to conditions: read-out: Infectivity EC50.
Setting [7] is: Table 1, cross validation assay at compound concentration of 10 uM.
Where [8] appears, read: HeLa cells, compound exposure for 3 days, preliminary.
Setting [9] is: Table 5, concerted integration, read-out: Concerted IC50.
Where [10] appears, read: Table 5, single-end integration, read-out: Single End IC50.
[11] abbreviates: Table 6, read-out: HIV Concerted IC50.
Where [12] appears, read: Table 6, read-out: HIV Single End IC50.

Read-outs that look alike come from different tables or passages of the source.

For `CCn1nc(-c2ccc(C(F)(F)F)cc2)nc2c(=O)n(C)c(=O)nc1-2` [Formula I-5], in series [1] (setting [7]), the “Relative % concerted integration” value was 0.72%.
Regarding `O=C(O)CCCCCNc1ccc([N+](=O)[O-])c2nonc12` [II-2], in series [2] (setting [8]), the “Toxicity LD50” value is over 50 µM. The IC50 in series [1] (Concerted IC50) is 500 µM; in series [1] (Single End IC50) it was over 1000 µM.
As for `Cn1ncnc2c(=O)n(C)c(=O)nc1-2` [Formula I-1], the IC50 is over 100 µM in series [3] (read-out: ASV Concerted IC50); over 100 µM in series [3] (read-out: ASV Single End IC50); over 1000 µM in series [5] (read-out: PFV Concerted IC50); over 1000 µM in series [5] (read-out: PFV Single End IC50); 0.2 µM in series [1] (Table 1, read-out: IC50 (concerted integration)); 0.2 µM in series [1] (setting [9]). The IC50 was 1.25 µM in series [1] (setting [10]), 0.2 µM in series [1] (setting [11]) and 1.25 µM in series [1] (setting [12]). For the same compound, the “Tox/Infect LD50” value in series [4] was over 5 µM. Also, the EC50 in series [6] was 0.3 µM. For the same compound, in series [2] (setting [8]), the “Toxicity LD50” value was determined as 0.43 µM. In series [1] (setting [7]), the “Relative % concerted integration” value was found to be 3.84%. Also, the activity at 0.001 µM in series [1] (Table 4, Form F3 (concerted integration), 0.001 uM, read-out: Rel % Activity) came out at 99.6%. Also, the activity at 0.005 µM in series [1] (Table 4, Form F3 (concerted integration), 0.005 uM, read-out: Rel % Activity) amounted to 83.8%; in series [1] (read-out: Rel % Activity) it was 106%. The activity at 0.01 µM in series [1] (Table 4, Form F3 (concerted integration), 0.01 uM, read-out: Rel % Activity) came to 92.4%. Also, in series [1] (Table 4, Form F3 (concerted integration), 0.05 uM, read-out: Rel % Activity), the activity at 0.05 µM was found to be 78.2%. In series [1] (Table 4, Form F3 (concerted integration), 0.1 uM, read-out: Rel % Activity), the activity at 0.1 µM came out at 75.3%. For the same compound, the activity at 0.5 µM in series [1] (Table 4, Form F3 (concerted integration), 0.5 uM, read-out: Rel % Activity) came to 17.4%. For the same compound, in series [1] (Table 4, Form F3 (concerted integration), 1 uM, read-out: Rel % Activity), the activity at 1 µM came out at 6.42%. Also, the activity at 5 µM in series [1] (Table 4, Form F3 (concerted integration), 5 uM, read-out: Rel % Activity) came out at 0.705%. Also, the activity at 10 µM in series [1] (Table 4, Form F3 (concerted integration), 10 uM, read-out: Rel % Activity) came to 0.419%. For the same compound, the activity at 50 µM in series [1] (Table 4, Form F3 (concerted integration), 50 uM, read-out: Rel % Activity) turned out to be 0.366%. Further, in series [1] (Table 4, Form F3 (concerted integration), 100 uM, read-out: Rel % Activity), the activity at 100 µM stood at 0.453%. In addition, the activity at 500 µM in series [1] (Table 4, Form F3 (concerted integration), 500 uM, read-out: Rel % Activity) is 0.433%. The activity at 1000 µM in series [1] (Table 4, Form F3 (concerted integration), 1000 uM, read-out: Rel % Activity) is 1.34%. The “I.I.(K Counts) CI/SI” value in series [1] (0.001 uM) came out at 1.336; in series [1] (0.005 uM), 1.067; in series [1] (0.01 uM), 1.193; in series [1] (0.05 uM) it was 1.007; in series [1] (0.1 uM), 0.978; in series [1] (0.5 uM) it was 0.331. The “I.I.(K Counts) CI/SI” value in series [1] (1 uM) is reported as 0.159; in series [1] (5 uM) it was 0.034; in series [1] (10 uM), 0.022; in series [1] (50 uM), 0.020; in series [1] (100 uM), 0.026; in series [1] (500 uM), 0.033. The “I.I.(K Counts) CI/SI” value in series [1] (1000 uM) amounted to 0.107.
Turning to `Cn1nc(-c2ccc([N+](=O)[O-])cc2)nc2c(=O)n(C)c(=O)nc1-2` [Formula I-12], the “Relative % concerted integration” value in series [1] (setting [7]) is reported as 3.26%.
Consider `O=C(CCCCCNc1ccc([N+](=O)[O-])c2nonc12)ON1C(=O)CCC1=O` [II-4], for which the IC50 in series [3] (read-out: ASV Concerted IC50) was 53 µM; in series [3] (read-out: ASV Single End IC50), 175 µM; in series [5] (read-out: PFV Concerted IC50), over 390 µM; in series [5] (read-out: PFV Single End IC50), over 350 µM; in series [1] (setting [9]), 16 µM; in series [1] (setting [10]) it was 71 µM. Also, the IC50 in series [1] (setting [11]) amounted to 16 µM; in series [1] (setting [12]), 65 µM. Also, the “Tox/Infect LD50” value in series [4] was over 20 µM. Moreover, the EC50 in series [6] was 5 µM. Besides, in series [2] (setting [8]), the “Toxicity LD50” value was over 50 µM.
In the case of `Cn1nc(/C=C\c2ccccc2)nc2c(=O)n(C)c(=O)nc1-2` [Formula I-11], in series [1] (setting [7]), the “Relative % concerted integration” value came to 1.76%.
Still for that read-out and setting: next, `CCn1nc(-c2cccs2)nc2c(=O)n(C)c(=O)nc1-2` [Formula I-3]: 2.07%.
For the compound `Cn1nc(-c2ccc(C(F)(F)F)cc2)nc2c(=O)n(C)c(=O)nc1-2` [Formula I-10], the “Relative % concerted integration” value in series [1] (setting [7]) stood at 1.56%.
Same read-out and setting: to `CCn1nc(-c2cc(Br)cs2)nc2c(=O)n(C)c(=O)nc1-2` [Formula I-6] belongs 1.72%.
The same measure, in the same setting: to `CCn1nc(-c2cc(Br)ccc2F)nc2c(=O)n(C)c(=O)nc1-2` [Formula I-4] belongs 0.26%.
As to `Cn1nc(-c2ccc(F)cc2)nc2c(=O)n(C)c(=O)nc1-2` [Formula I-8], the “Relative % concerted integration” value in series [1] (setting [7]) stood at 0.42%.
With `CCc1ccc(-c2nc3c(=O)n(C)c(=O)nc-3n(CC)n2)cc1` [Formula I-13], the “Toxicity LD50” value in series [2] (human, 3 days) was found to be 3.2 µM. The “Relative % concerted integration” value in series [1] is 7.07% (IC50 of 0.27 μM). Also, the IC50 in series [1] (Concerted IC50) was 0.27 µM; in series [1] (IC50 (concerted integration)), 0.27 µM; in series [1] (Single End IC50), 1.4 µM.
Consider `CCCc1nc2c(=O)n(C)c(=O)nc-2n(C)n1` [Formula I-7], for which the “Relative % concerted integration” value in series [1] (setting [7]) is on record as 0.07%.
`Cn1nc(-c2ccccc2)nc2c(=O)n(C)c(=O)nc1-2` [Formula I-9]: the “Relative % concerted integration” value in series [1] (setting [7]) is 2.73%.
`Cc1nnc(C(=O)NC(C)(C)c2nc(C(=O)NCc3ccc(F)cc3)c(O)c(=O)n2C)o1` [RAL, Raltegravir, reference compound]: the IC50 is 0.6 µM in series [3] (read-out: ASV Concerted IC50), 22 µM in series [3] (read-out: ASV Single End IC50), 1 µM in series [5] (read-out: PFV Concerted IC50) and under 10 µM in series [5] (read-out: PFV Single End IC50). Further, the “Tox/Infect LD50” value in series [4] was over 10 µM. Also, the EC50 in series [6] was determined as 0.05 µM. The “Toxicity LD50” value in series [2] (setting [8]) is over 20 µM.
Take `CCn1nc(-c2ccccn2)nc2c(=O)n(C)c(=O)nc1-2` [Formula I-2]: the “Relative % concerted integration” value in series [1] (setting [7]) was determined as 6.33%.
As to `Nc1ccc(N2CCCCC2)c2nonc12` [II-3], the “Toxicity LD50” value in series [2] (human, 3 days) came out at 25 µM. Moreover, the IC50 is 15 µM in series [1] (Concerted IC50) and over 1000 µM in series [1] (Single End IC50).

For orientation: EC50 means the concentration at which the effect is half-maximal.
